Measured values published in ChEMBL document CHEMBL1201862, “PubChem BioAssay data set” (2004).
The source made the active and inactive calls.

Key:
[1] = target: T1, Oxysterols receptor LXR-beta (Homo sapiens, UniProt P55055); assay type: functional, cell-based;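 further: agonist activity at LXR measured by a cell-based luminescence readout across a dose range, run as a counterscreen for daf-12 agonists; HEK293 cells with Gal4-LXR fusion and GAL4-driven luciferase reporter; potency for activation of Gal4-LXR reporter so compounds are agonists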
T1 sequence (P55055 whole entry): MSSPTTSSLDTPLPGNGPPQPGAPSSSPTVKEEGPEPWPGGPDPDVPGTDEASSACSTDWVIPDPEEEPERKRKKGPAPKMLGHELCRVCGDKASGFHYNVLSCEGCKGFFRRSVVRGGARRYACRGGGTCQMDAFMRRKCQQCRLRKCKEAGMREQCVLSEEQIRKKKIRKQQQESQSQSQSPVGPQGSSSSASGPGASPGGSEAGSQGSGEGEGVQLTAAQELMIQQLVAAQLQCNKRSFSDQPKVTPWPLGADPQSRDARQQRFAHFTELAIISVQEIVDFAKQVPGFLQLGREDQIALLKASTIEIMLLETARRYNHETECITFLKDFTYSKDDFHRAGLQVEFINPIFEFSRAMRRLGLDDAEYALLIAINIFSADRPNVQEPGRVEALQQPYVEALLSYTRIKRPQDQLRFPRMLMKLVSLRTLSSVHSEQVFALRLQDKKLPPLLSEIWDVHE

[2] = HEK293 cell cytotoxicity, dose response, cytotoxicity control, plate reader, cherry-picked samples (AID 743446); assay type: functional, cell-based
[3] = HepG2 cell cytotoxicity, dose response, cytotoxicity control, plate reader, cherry-pick, antagonist series (AID 743416); assay type: functional, cell-based
[4] = MC4R antagonists, dose response, counter-screen for LGR2 antagonist project, cell-based, plate reader, cherry pick (AID 743444); assay type: functional;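 further: transfected HEK 293 cells stimulated with alpha-MSH peptide; potency of inhibitors of the alpha-MSH evoked signal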
[5] = A549 cell cytotoxicity, dose response, cytotoxicity control, plate reader, cherry-pick, antagonist series (AID 743412); assay type: functional, cell-based
[6] = LGR2 antagonists, dose response, cell-based, HEK293, CRE-luciferase reporter, cherry pick, set 2 (AID 743343); assay type: functional;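 further: transfected cells were stimulated with diluted bursicon conditioned medium after compound addition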
[7] = target: T2, Trace amine-associated receptor 1 (Homo sapiens, UniProt Q96RJ0); assay: Counterscreen for agonists of the human trace amine associated receptor 1 (hTAAR1): Fluorescence-based cell-based high throughput dose response assay to identify hTAAR1 agonist that also desensitize TAAR1 receptor response.; assay type: functional
T2 sequence (Q96RJ0 whole entry): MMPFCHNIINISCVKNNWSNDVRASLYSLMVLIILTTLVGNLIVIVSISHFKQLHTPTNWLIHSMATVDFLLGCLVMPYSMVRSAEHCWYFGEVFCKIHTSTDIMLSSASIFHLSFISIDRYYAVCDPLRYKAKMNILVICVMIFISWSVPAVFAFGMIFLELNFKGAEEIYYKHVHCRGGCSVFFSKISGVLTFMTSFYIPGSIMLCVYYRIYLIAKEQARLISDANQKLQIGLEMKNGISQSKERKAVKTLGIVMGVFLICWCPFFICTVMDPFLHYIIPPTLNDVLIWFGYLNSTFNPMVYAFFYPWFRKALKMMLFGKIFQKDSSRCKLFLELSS

[8] = target: T2, Trace amine-associated receptor 1; assay: Fluorescence-based cell-based high throughput dose response assay to identify agonists of the human trace amine associated receptor 1 (TAAR1).; assay type: functional
[9] = cells; assay type: functional, cell-based
[10] = cells; assay type: functional, cell-based; remark: listed apart in the source
[11] = target: T3, Caspase-6 (Homo sapiens, UniProt P55212); assay: human caspase-6 inhibitors, dose response, biochemical, VEID-R110 fluorescence, cherry-pick (AID 720632)
T3 sequence (P55212 whole entry): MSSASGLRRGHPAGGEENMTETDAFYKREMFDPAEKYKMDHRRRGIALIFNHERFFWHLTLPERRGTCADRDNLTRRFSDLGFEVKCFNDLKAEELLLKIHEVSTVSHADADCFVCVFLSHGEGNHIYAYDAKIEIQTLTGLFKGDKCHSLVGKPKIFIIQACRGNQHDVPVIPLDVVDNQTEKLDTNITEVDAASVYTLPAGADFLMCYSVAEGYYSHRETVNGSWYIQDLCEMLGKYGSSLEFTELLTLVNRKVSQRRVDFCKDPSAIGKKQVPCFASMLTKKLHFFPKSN

[12] = target: FAD-linked sulfhydryl oxidase ALR (Homo sapiens, UniProt P55789); assay: inhibitors of human ALR sulfhydryl oxidase, dose response, biochemical, H2O2 detection, luminescence, cherry-pick (AID 493248)
[13] = target: Heat shock protein HSP 90-alpha (Homo sapiens, UniProt P07900); assay type: functional, organism-based
[14] = target: Large T antigen (Simian virus 40, UniProt P03070); assay type: functional, Betapolyomavirus macacae;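 further: Confirmatory-stage PubChem screen for compounds that inhibit SV40 T antigen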
[15] = target: Genome polyprotein (dengue virus type 2, UniProt P29990); assay: Dengue-2 NS5 methyltransferase inhibitors, primary screen, biochemical, confirmation dose response (AID 588689); assay type: functional
[16] = target: Glyceraldehyde-3-phosphate dehydrogenase (Homo sapiens, UniProt P04406)
[17] = target: T4, Protein RecA (Mycobacterium tuberculosis, UniProt P9WHJ3); assay: Fluorescence Cell-Free Homogeneous Dose Retest to Identify Inhibitors of RecA-Intein Splicing Activity. [Related pubchem assays (depositor defined):AID2097, AID2223, AID489010, AID492950]; assay type: functional
T4 sequence (P9WHJ3 whole entry): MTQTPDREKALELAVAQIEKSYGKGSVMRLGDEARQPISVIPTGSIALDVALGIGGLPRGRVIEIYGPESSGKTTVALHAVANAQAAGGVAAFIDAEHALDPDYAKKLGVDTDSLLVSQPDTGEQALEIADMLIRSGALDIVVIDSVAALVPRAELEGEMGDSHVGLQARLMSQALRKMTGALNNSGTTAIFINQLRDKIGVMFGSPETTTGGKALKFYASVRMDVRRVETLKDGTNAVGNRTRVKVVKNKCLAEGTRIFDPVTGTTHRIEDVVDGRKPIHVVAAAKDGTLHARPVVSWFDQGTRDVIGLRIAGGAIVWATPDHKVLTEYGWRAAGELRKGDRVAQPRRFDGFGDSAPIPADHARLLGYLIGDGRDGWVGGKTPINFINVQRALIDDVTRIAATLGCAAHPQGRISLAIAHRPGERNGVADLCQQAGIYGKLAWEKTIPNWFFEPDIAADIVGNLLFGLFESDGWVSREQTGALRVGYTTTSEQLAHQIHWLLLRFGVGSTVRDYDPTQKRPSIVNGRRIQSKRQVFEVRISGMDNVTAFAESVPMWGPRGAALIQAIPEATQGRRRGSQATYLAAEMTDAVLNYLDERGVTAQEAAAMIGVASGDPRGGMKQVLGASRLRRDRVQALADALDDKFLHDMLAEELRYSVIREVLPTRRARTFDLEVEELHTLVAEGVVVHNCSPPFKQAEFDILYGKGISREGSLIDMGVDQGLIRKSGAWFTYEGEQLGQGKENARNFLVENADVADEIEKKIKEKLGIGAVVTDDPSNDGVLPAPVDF

[18] = target: T5, Replicative DNA helicase DnaB (Mycobacterium tuberculosis, UniProt P9WMR3); assay: DnaB intein splicing inhibitors, dose response, biochemical, cell-free fluorescence (AID 449749); assay type: functional
T5 sequence (P9WMR3 whole entry): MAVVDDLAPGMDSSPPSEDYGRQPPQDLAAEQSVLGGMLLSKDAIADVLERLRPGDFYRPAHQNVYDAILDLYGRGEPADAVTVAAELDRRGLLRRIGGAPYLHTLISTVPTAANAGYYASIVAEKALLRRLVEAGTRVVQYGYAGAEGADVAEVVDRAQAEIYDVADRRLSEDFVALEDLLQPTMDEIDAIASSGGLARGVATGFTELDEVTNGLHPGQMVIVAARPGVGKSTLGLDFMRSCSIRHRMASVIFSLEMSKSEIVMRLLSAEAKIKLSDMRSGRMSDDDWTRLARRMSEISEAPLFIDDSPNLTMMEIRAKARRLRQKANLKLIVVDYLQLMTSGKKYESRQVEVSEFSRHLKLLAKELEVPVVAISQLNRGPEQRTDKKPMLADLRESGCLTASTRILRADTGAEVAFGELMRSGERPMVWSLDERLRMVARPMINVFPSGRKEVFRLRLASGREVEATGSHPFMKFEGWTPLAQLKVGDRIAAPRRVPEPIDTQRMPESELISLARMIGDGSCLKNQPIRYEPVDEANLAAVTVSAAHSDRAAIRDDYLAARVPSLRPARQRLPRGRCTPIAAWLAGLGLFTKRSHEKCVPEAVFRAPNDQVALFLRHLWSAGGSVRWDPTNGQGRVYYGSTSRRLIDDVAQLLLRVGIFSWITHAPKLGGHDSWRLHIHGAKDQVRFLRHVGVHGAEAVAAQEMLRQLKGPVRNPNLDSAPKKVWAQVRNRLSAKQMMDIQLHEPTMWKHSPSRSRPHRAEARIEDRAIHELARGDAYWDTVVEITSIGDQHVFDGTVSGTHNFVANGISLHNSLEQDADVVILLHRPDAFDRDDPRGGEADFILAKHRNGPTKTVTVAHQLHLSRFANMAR

[19] = cytotoxicity in HEK-293T cells, dose response, cytotoxicity control for TCR NF-kB inhibitor project, luminescence, T-cell screen hits (AID 489026); assay type: functional, cell-based;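 further: cells exposed to compound about 14 hours before the viability readout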
[20] = inhibitors of intracellular T. cruzi replication, confirmation, NIH3T3 host cells, beta-gal luminescence (AID 2044); assay type: functional, cell-based;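 further: intracellular parasites grown in NIH/3T3 mouse fibroblasts as host cells; luminescent beta-galactosidase reporter signal from transgenic T. cruzi replicating inside host cells; inhibitors lower the luminescence signal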
[21] = cytotoxicity toward NIH3T3 fibroblasts, dose response, counter-screen, cell-based, ATP luminescence, mouse fibroblasts (AID 2010); assay type: functional;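 further: cells exposed to compound for about 90 hours before reading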
[22] = microbe, parasite or virus in culture; assay type: functional; conditions: Mycobacterium tuberculosis
[23] = Shn3 3'UTR reporter inhibitors, dose response, cell-based, Clone20 osteoblasts, firefly luciferase, cherry-picked (AID 624132); assay type: functional;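 further: firefly luciferase luminescence from reporter carrying the Shn3 3'UTR in osteoblasts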
[24] = control 3'UTR Renilla luciferase suppression, dose response, counter-screen for Shn3 inhibitor project, cell-based, Clone20-Shn3RL, cherry-picked (AID 624133); assay type: functional
[25] = HepG2 cell cytotoxicity, dose response, cytotoxicity control for Shn3 inhibitor project, CellTiter-Glo, cherry-picked (AID 624134); assay type: functional, cell-based

Chain of Large T antigen (P03070 whole entry): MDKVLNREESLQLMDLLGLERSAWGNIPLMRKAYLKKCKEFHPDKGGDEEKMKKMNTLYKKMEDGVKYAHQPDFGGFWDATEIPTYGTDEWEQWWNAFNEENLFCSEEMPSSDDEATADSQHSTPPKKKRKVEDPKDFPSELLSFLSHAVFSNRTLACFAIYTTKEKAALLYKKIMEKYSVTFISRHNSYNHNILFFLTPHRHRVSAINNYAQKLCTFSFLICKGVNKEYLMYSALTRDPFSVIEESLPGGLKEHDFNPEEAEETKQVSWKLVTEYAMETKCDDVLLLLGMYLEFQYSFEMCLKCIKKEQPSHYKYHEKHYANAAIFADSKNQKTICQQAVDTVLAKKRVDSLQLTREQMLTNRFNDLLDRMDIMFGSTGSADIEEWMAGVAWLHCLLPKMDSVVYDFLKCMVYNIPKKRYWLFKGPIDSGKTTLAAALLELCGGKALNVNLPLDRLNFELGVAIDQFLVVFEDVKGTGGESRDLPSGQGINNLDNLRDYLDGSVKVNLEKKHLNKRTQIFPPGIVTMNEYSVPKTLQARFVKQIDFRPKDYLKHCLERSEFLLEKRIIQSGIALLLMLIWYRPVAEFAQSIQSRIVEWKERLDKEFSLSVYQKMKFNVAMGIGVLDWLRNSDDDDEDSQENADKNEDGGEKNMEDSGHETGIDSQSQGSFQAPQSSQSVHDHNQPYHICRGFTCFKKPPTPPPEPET
Chain of FAD-linked sulfhydryl oxidase ALR (P55789 whole entry): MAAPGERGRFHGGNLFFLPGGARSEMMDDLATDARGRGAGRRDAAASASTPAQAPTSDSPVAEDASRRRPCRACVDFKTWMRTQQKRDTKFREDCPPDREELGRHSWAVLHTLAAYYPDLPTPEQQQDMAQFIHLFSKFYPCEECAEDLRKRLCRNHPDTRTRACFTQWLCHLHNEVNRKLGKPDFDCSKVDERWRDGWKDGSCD
Chain of Glyceraldehyde-3-phosphate dehydrogenase (P04406 whole entry): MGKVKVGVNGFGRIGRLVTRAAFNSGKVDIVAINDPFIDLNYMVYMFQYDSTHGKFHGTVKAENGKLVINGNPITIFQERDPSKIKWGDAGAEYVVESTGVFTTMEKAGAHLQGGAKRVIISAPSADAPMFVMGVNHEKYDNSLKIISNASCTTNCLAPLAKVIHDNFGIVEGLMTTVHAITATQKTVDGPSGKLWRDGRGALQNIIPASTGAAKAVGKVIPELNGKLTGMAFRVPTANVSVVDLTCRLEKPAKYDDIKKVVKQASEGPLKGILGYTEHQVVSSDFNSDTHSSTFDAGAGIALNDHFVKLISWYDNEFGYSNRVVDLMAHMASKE
Chain of Genome polyprotein (P29990 2492-3391 limits assumed): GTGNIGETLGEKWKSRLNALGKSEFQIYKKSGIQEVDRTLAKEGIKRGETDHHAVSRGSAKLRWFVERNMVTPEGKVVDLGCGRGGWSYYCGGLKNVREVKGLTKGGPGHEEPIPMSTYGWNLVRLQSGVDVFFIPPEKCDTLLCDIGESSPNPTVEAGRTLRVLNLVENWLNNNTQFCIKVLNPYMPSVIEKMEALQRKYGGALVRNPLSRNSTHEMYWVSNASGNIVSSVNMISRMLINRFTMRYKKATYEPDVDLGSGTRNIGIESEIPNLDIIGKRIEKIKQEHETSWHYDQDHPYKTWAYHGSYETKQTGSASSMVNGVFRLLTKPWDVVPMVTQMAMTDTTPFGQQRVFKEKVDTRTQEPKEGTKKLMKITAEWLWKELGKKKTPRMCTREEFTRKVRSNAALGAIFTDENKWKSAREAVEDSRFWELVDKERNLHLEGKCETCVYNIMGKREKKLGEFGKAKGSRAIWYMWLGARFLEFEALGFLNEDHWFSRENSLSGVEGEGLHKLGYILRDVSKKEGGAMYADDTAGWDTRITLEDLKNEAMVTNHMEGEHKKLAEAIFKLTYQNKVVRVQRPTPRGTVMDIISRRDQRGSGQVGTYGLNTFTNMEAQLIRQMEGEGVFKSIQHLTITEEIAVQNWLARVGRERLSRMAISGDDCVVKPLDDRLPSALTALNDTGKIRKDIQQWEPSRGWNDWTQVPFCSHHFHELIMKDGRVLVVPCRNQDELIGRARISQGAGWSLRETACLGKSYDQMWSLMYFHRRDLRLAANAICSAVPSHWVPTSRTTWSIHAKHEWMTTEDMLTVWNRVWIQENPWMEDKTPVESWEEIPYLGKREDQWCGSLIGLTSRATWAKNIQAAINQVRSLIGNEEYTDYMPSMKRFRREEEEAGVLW

CCN1C(=O)/C(=C/Nc2ccccc2)SC1=S
EC50 [1]: > 67.5 µM (inactive)

Nc1c2c(nc3sc4c(c13)CCCC4)CCCCC2
EC50 [1]: > 67.6 µM (inactive)

COc1ccccc1NC(=O)N1CCCCN2[C@@H](CO)[C@H](c3ccc(-c4cccc(F)c4)cc3)[C@@H]2C1
AC50 [2]: > 52 µM (inactive) | AC50 [3]: 19 µM (active) | AC50 [4]: 52.2 µM (active) | AC50 [5]: 18.6 µM (active) | AC50 [6]: 64.7 µM (active)

Cc1cnc(NC(=O)COc2ccc3c(c2)CCC3)s1
EC50 [1]: > 67.6 µM (inactive)

COc1cccc(NC(=N)N)c1
IC50 [7]: 5.04 µM (active) | EC50 [8]: 1.87 µM (active) | EC50 [9]: > 29.9 µM (inactive) | IC50 [10]: > 29.9 µM (inactive)

COc1cc(/C=C2\SC(=S)N(CC(=O)O)C2=O)ccc1OS(=O)(=O)c1ccc(C)cc1
AC50 [11]: 46.2 µM (active) | AC50 [12]: 2.07 µM (active)

O=C(O)c1ccc(N=Nc2c(O)[nH]c3cc(Cl)ccc23)cc1
AC50 [11]: 49.4 µM (active)

CC1CCN(C(=O)c2ccc(S(=O)(=O)Cc3cc(F)ccc3F)c([N+](=O)[O-])c2)CC1
AC50 [2]: 31.7 µM (active) | AC50 [3]: > 52 µM (inactive) | AC50 [4]: 53.6 µM (active) | AC50 [5]: 25.4 µM (active)

C/C(=C\C(=O)c1sccc1Cl)N(C)C
EC50 [1]: > 67.6 µM (inactive)

CC[C@H](C)/C=C/C1=CC2=C(Cl)C(=O)[C@@]3(C)OC(=O)C(C(=O)[C@H](C)[C@@H](C)O)=C3C2=CO1
AC50 [13]: 7.41 µM (active) | IC50 [14]: 44 µM (active)

COc1cccc(C)c1NC1=NCCO1
IC50 [7]: 4.12 µM (active) | EC50 [8]: 0.734 µM (active) | EC50 [9]: > 29.9 µM (inactive) | IC50 [10]: > 29.9 µM (inactive)

Cc1cccc(N2C(=O)C(Cl)=C(N3CCOCC3)C2=O)c1
IC50 [15]: 34.5 µM (active) | IC50 [16]: > 50 µM (inconclusive) | EC50 [17]: 1.9 µM (active) | AC50 [18]: 6.69 µM (active)

O=C(O)C1C2CCC(C2)C1C(=O)NCCC1=CCCCC1 (configuration not stated)
IC50 [7]: > 29.9 µM (inactive) | EC50 [8]: 6.32 µM (active) | EC50 [9]: > 29.9 µM (inactive) | IC50 [10]: > 29.9 µM (inactive)

O=C(COC(=O)Cc1ccccc1)Nc1cc(S(=O)(=O)N2CCCCC2)ccc1Cl
AC50 [11]: 38.3 µM (active)

O=C1CC(N2CCC(c3nc4ccccc4o3)CC2)C(=O)N1c1ccc(Cl)c(C(F)(F)F)c1 (configuration not stated)
AC50 [13]: 2.08 µM (active)

CC1(C)Cc2nc3sc4c(=O)n(CC(=O)NCc5ccccc5)cnc4c3cc2CO1
IC50 [19]: > 80 µM (inactive)

O=[N+]([O-])/C=C/c1c(Cl)cccc1Cl
AC50 [13]: 1.12 µM (active)

O=C(CNC(=O)c1ccccc1F)N/N=C\C=C\c1ccccc1
IC50 [7]: 9.57 µM (active) | EC50 [8]: > 29.9 µM (inactive) | EC50 [9]: > 29.9 µM (inactive) | IC50 [10]: > 29.9 µM (inactive)

Nc1cc2cccnc2cc1Cl
AC50 [11]: 25.6 µM (active)

OC(COC(c1ccc(Cl)cc1)c1ccc(Cl)cc1)CN1CCc2ccccc2C1 (configuration not stated)
IC50 [7]: 9.26 µM (active) | EC50 [20]: 2.16 µM (active) | EC50 [8]: 2.13 µM (active) | EC50 [21]: > 60 µM (inconclusive) | EC50 [9]: > 29.9 µM (inactive) | IC50 [10]: 12.1 µM (inactive) | CC50 [22]: 34.7 µM (active) | EC50 [17]: 81.5 µM (active) | AC50 [18]: 2.26 µM (active)

COc1ccc(-c2nn(-c3ccccc3)cc2C(=O)N2CCN(S(=O)(=O)c3ccccc3[N+](=O)[O-])CC2)cc1
AC50 [13]: 3.97 µM (active)

Cc1cccc(C)c1-n1nnnc1C(c1cc2ccccc2o1)N1CCC(n2c(O)nc3ccccc32)CC1 (configuration not stated)
AC50 [2]: 4.96 µM (active) | AC50 [3]: 1.98 µM (active) | AC50 [4]: 3.33 µM (active) | AC50 [23]: 3.05 µM (active) | AC50 [5]: 6.22 µM (active) | AC50 [24]: 4.09 µM (active) | AC50 [25]: 2.97 µM (active) | AC50 [6]: 3.43 µM (active)

CCSCC(C)(C)n1[nH]c2ccccc2c1=O
EC50 [1]: > 67.6 µM (inactive)
